Measured values: PubChem BioAssay (NCI)
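96-well plates; 48 h exposure; 5 concentrations. Endpoints by linear interpolation between flanking doses. Not reached: highest tested concentration assigned. TGI: total growth inhibition.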

Tests used:
Assay in all cases: NCI anticancer screen, dose series, 48 h
[1] = test system: NCI-H23 lung
[2] = test system: OVCAR-8 ovarian
[3] = test system: UACC-62 melanoma
[4] = test system: HL-60(TB) leukemia
[5] = test system: LOX IMVI melanoma
[6] = test system: A549 NSCLC
[7] = test system: SK-OV-3 ovarian
[8] = test system: SN12C renal
[9] = test system: SNB-19 CNS
[10] = test system: ACHN renal
[11] = test system: UO-31 renal
[12] = test system: HCT-116 colon
[13] = test system: M19-MEL melanoma
[14] = test system: COLO 205 colon
[15] = test system: SK-MEL-5 melanoma
[16] = test system: OVCAR-4 ovarian
[17] = test system: NCI-H226 lung
[18] = test system: HCT-15 colon
[19] = test system: HOP-92 NSCLC
[20] = test system: RPMI-8226 leukemia
[21] = test system: SR leukemia
[22] = test system: DMS 114 small cell lung
[23] = test system: A498 renal
[24] = test system: CCRF-CEM leukemia
[25] = test system: SF-539 CNS
[26] = test system: SK-MEL-2 melanoma
[27] = test system: LXFL 529 NSCLC
[28] = test system: EKVX NSCLC
[29] = test system: OVCAR-5 ovarian
[30] = test system: SW-620 colon
[31] = test system: MCF7 breast
[32] = test system: OVCAR-3 ovarian
[33] = test system: SNB-78 CNS
[34] = test system: MDA-N
[35] = test system: BT-549 breast
[36] = test system: NCI-H460 lung
[37] = test system: HCC-2998 colon
[38] = test system: UACC-257 melanoma
[39] = test system: K-562 leukemia
[40] = test system: SNB-75 CNS
[41] = test system: NCI-H522 lung
[42] = test system: 786-0 renal
[43] = test system: TK-10 renal
[44] = test system: U251 CNS
[45] = test system: SK-MEL-28 melanoma
[46] = test system: PC-3 prostate
[47] = test system: IGROV1 ovarian
[48] = test system: KM12 colon
[49] = test system: T-47D breast
[50] = test system: HOP-62 NSCLC
[51] = test system: M14 melanoma
[52] = test system: MDA-MB-231 breast
[53] = test system: HT29 colon
[54] = test system: MALME-3M melanoma
[55] = test system: SF-295 CNS
[56] = test system: NCI/ADR-RES ovarian
[57] = test system: MDA-MB-435
[58] = test system: MOLT-4 leukemia
[59] = test system: CAKI-1 renal
[60] = test system: SF-268 CNS
[61] = test system: RXF 393 renal
[62] = test system: DMS 273 small cell lung
[63] = test system: KM20L2 colon
[64] = test system: DU-145 prostate
[65] = test system: HS 578T breast

CC(C)Cn1cnc2c(Sc3c([N+](=O)[O-])ncn3C)nc(N)nc21
TGI [1]: > 100 µM | TGI [2]: > 100 µM | TGI [3]: > 100 µM | TGI [4]: > 100 µM | TGI [5]: > 100 µM | TGI [6]: > 100 µM | TGI [7]: > 100 µM | TGI [8]: > 100 µM | TGI [9]: > 100 µM | TGI [10]: > 100 µM | TGI [11]: > 75 µM | TGI [12]: > 100 µM | TGI [13]: > 100 µM | TGI [14]: > 62.9 µM | TGI [15]: > 100 µM | TGI [16]: > 100 µM | TGI [17]: > 100 µM | TGI [18]: > 100 µM | TGI [19]: 36.9 µM | TGI [20]: > 100 µM | TGI [21]: > 100 µM | TGI [22]: > 100 µM | TGI [23]: > 100 µM | TGI [24]: > 100 µM | TGI [25]: > 100 µM | TGI [26]: 81.9 µM | TGI [27]: > 100 µM | TGI [28]: > 100 µM | TGI [29]: > 100 µM | TGI [30]: > 100 µM | TGI [31]: > 100 µM | TGI [32]: > 57.4 µM | TGI [33]: > 100 µM | TGI [34]: > 100 µM | TGI [35]: > 100 µM | TGI [36]: > 100 µM | TGI [37]: > 100 µM | TGI [38]: > 100 µM | TGI [39]: > 100 µM | TGI [40]: > 100 µM | TGI [41]: 89.1 µM | TGI [42]: > 100 µM | TGI [43]: > 100 µM | TGI [44]: > 100 µM | TGI [45]: > 100 µM | TGI [46]: > 100 µM | TGI [47]: > 100 µM | TGI [48]: > 100 µM | TGI [49]: > 100 µM | TGI [50]: > 100 µM | TGI [51]: > 100 µM | TGI [52]: > 100 µM | TGI [53]: > 100 µM | TGI [54]: > 59.8 µM | TGI [55]: > 100 µM | TGI [56]: > 100 µM | TGI [57]: > 100 µM | TGI [58]: > 100 µM | TGI [59]: > 100 µM | TGI [60]: > 100 µM | TGI [61]: > 100 µM | TGI [62]: > 100 µM | TGI [63]: > 100 µM | TGI [64]: > 100 µM

C[C@]12OC(=O)[C@]3(O)CC[C@H]4[C@@H](C[C@@H](O)[C@@]5(Cl)CC=CC(=O)[C@]45C)[C@]45OCC6C(=O)O[C@@H]1C[C@@]6(C)[C@H](C4=O)[C@@]32O5 (stereo partly drawn)
TGI [1]: 1.83 µM | TGI [2]: 8.39 µM | TGI [3]: 4.2 µM | TGI [4]: 12.8 µM | TGI [5]: 6.46 µM | TGI [6]: 75 µM | TGI [7]: 10.9 µM | TGI [8]: 19.3 µM | TGI [9]: 18.2 µM | TGI [10]: 5.9 µM | TGI [11]: 2.57 µM | TGI [12]: 12 µM | TGI [14]: 17.1 µM | TGI [15]: 13.2 µM | TGI [16]: 8.63 µM | TGI [17]: 9.37 µM | TGI [65]: 44.5 µM | TGI [18]: 7.61 µM | TGI [19]: 5.68 µM | TGI [20]: 8.6 µM | TGI [21]: 14.2 µM | TGI [23]: 2.91 µM | TGI [24]: 6.69 µM | TGI [25]: 1.97 µM | TGI [26]: 2.71 µM | TGI [28]: 4.91 µM | TGI [29]: 3.23 µM | TGI [30]: 12.6 µM | TGI [31]: 4 µM | TGI [32]: 6.65 µM | TGI [34]: 17 µM | TGI [35]: 2.27 µM | TGI [36]: 9.54 µM | TGI [37]: 2.55 µM | TGI [38]: 8.2 µM | TGI [39]: 23.8 µM | TGI [40]: 19.6 µM | TGI [41]: 1.14 µM | TGI [42]: 11.3 µM | TGI [43]: 7.18 µM | TGI [44]: 15 µM | TGI [45]: 75 µM | TGI [46]: 8.71 µM | TGI [47]: 2.74 µM | TGI [48]: 8.59 µM | TGI [49]: 23.3 µM | TGI [50]: 10.3 µM | TGI [51]: 2.47 µM | TGI [52]: 28.6 µM | TGI [53]: 5.35 µM | TGI [54]: 5.04 µM | TGI [55]: 12.4 µM | TGI [56]: 60.6 µM | TGI [57]: 23.8 µM | TGI [58]: 17.4 µM | TGI [59]: 4.03 µM | TGI [60]: 7.39 µM | TGI [61]: 1.04 µM | TGI [64]: 24.3 µM
